Values of other authors, collected in patent US20230405025A1, “CANNABINOID-CONTAINING COMPOSITIONS AND USE FOR TREATING AND PREVENTING DISEASES” (priority 2020, published 2023).

Tested on: presbyopic patient

In the case of CC[C@@H]1C(=O)OC[C@@H]1Cc1cncn1C [Pilocarpine, pilocarpine], the Tolerability (concentrations above 0.5%, side effects red eyes, ocular pain, brow ache, headache) is given as “not tolerated”, the Distance vision (concentrations effective enough to improve reading ability, eye rendered myopic (Gilmartin et al., 1995)) is given as “significant decrease in the eye's distance vision” and the “Effect on accommodation of the eye” value (topical concentrations below 0.5%) is given as “minimal effect in the accommodation of the eye”.
